Assay results reported in the NIST ThermoML archive (doi:10.1016/j.jct.2009.01.014).
Numbers after ± are expanded uncertainties.

Settings: for molar entropy: 101.33 kPa, Crystal 1, Vacuum adiabatic calorimetry

[Al+3].[Al+3].[Co+2].[O-2].[O-2].[O-2].[O-2] [aluminium cobalt oxide]
Settings | Triple point temperature [K] | molar entropy [J/K/mol]
15 K | – | 2.91 ± 0.04
20 K | – | 4.1 ± 0.05
25 K | – | 5.02 ± 0.05
30 K | – | 5.79 ± 0.08
35 K | – | 6.5 ± 0.08
40 K | – | 7.21 ± 0.08
45 K | – | 7.95 ± 0.08
50 K | – | 8.75 ± 0.09
55 K | – | 9.61 ± 0.09
60 K | – | 10.56 ± 0.09
65 K | – | 11.58 ± 0.09
70 K | – | 12.68 ± 0.1
75 K | – | 13.85 ± 0.1
80 K | – | 15.1 ± 0.11
85 K | – | 16.42 ± 0.11
90 K | – | 17.81 ± 0.33
95 K | – | 19.26 ± 0.33
100 K | – | 20.77 ± 0.33
105 K | – | 22.33 ± 0.33
110 K | – | 23.96 ± 0.34
120 K | – | 27.36 ± 0.34
130 K | – | 30.94 ± 0.35
140 K | – | 34.68 ± 0.35
150 K | – | 38.55 ± 0.36
160 K | – | 42.52 ± 0.36
170 K | – | 46.6 ± 0.37
180 K | – | 50.73 ± 0.38
190 K | – | 54.92 ± 0.38
200 K | – | 59.14 ± 0.39
210 K | – | 63.39 ± 0.4
220 K | – | 67.65 ± 0.4
230 K | – | 71.9 ± 0.41
240 K | – | 76.15 ± 0.41
250 K | – | 80.37 ± 0.42
260 K | – | 84.57 ± 0.43
270 K | – | 88.74 ± 0.43
280 K | – | 92.88 ± 0.44
290 K | – | 97 ± 0.45
298.15 K | – | 100.31 ± 0.45
300 K | – | 101.06 ± 0.45
310 K | – | 105.07 ± 0.46
320 K | – | 109.05 ± 0.46
330 K | – | 112.99 ± 0.47
340 K | – | 116.88 ± 0.48
350 K | – | 120.72 ± 0.48
360 K | – | 124.52 ± 0.49
370 K | – | 128.28 ± 0.49
380 K | – | 131.99 ± 0.5
390 K | – | 135.65 ± 0.5
Crystal 2, Adiabatic calorimetry | 9 ± 0.2 | –
